The source of these data is ChEMBL document CHEMBL5365543, “Benzamidine Conjugation Converts Expelled Potential Active Agents into Antifungals against Drug-Resistant Fungi” (J Med Chem, 2023).

Series [1] deals with Candida albicans. The series can be described thus: Antifungal activity against clinical isolate Candida albicans YEM13 overexpressing efflux pump MdrL assessed as inhibition of fungal growth measured after 24 hrs by CLSI based microtiter plate analysis. It counts as functional.
The test system of series [2] is Candida albicans. The series can be described thus: Antifungal activity against clinical isolate fluconazole-resistant Candida albicans CA632 assessed as inhibition of fungal growth measured after 24 hrs by CLSI based microtiter plate analysis. Type of series: functional.
Another series has as its system Candida tropicalis. The series can be described thus: Antifungal activity against clinical isolate fluconazole-resistant Candida tropicalis CT10 assessed as inhibition of fungal growth measured after 24 hrs by CLSI based microtiter plate analysis. It counts as functional.
In series [3] the test system is Candida albicans. The series can be described thus: Antifungal activity against clinical isolate Candida albicans SCUPC2R14MPG2A harbouring UPC2 mutation overexpressing […] Erg11 assessed as inhibition of fungal growth measured after 24 hrs by CLSI based microtiter plate analysis. Type of series: functional.
In series [4] the test system is [Candida] auris. The series can be described thus: Antifungal activity against clinical isolate fluconazole-resistant Candida auris CBS12774 assessed as inhibition of fungal growth measured after 24 hrs by CLSI based microtiter plate analysis. Type of series: functional. Particulars: Candidozyma auris.
Series [5] concerns Candida albicans. Briefly: Antifungal activity against clinical isolate fluconazole-resistant Candida albicans DSY296 harbouring TAC1 mutation overexpressing efflux pump CdrL and Cdr2 assessed as inhibition of fungal growth measured after 24 hrs by CLSI based microtiter plate analysis. It counts as functional.
Series [6] relates to [Candida] auris. Briefly: Antifungal activity against clinical isolate fluconazole-resistant Candida auris CBS12776 assessed as inhibition of fungal growth measured after 24 hrs by CLSI based microtiter plate analysis. Type of series: functional. Particulars: Candidozyma auris.
Series [7] can be described thus: Drug accumulation in wild-type Candida albicans SC5314 at 50 microg/ml incubated for 3 hrs by HPLC analysis. Type of series: ADME. Particulars: dose 50 µg/ml.
Series [8] deals with Candida albicans. Briefly: Antifungal activity against clinical isolate fluconazole-resistant Candida albicans Gu5 harbouring TAC1 mutation overexpressing efflux pump CdrL and Cdr2 assessed as inhibition of fungal growth measured after 24 hrs by CLSI based microtiter plate analysis. It counts as functional.
Another series concerns Nakaseomyces glabratus. The series can be described thus: Antifungal activity against clinical isolate fluconazole-resistant Candida glabrata CG2 assessed as inhibition of fungal growth measured after 24 hrs by CLSI based microtiter plate analysis. It counts as functional.
The test system of series [9] is Candida albicans. The series can be described thus: Antifungal activity against wild-type Candida albicans SC5314 assessed as inhibition of fungal growth measured after 24 hrs by CLSI based microtiter plate analysis. Type of series: functional. Particulars: for MIC80: Candida albicans, SC5314, 24 h, read-out: MIC80.
The test system of series [10] is Candida albicans. The series can be described thus: Antifungal activity against clinical isolate Candida albicans SCMRRIR34MPG2A harbouring MRR1 mutation overexpressing efflux pump MdrL assessed as inhibition of fungal growth measured after 24 hrs by CLSI based microtiter plate analysis. It counts as functional.
Series [11] deals with Candida albicans. Briefly: Antifungal activity against clinical isolate fluconazole-resistant Candida albicans G5 harbouring MRR1 mutation overexpressing MdrL assessed as inhibition of fungal growth measured after 24 hrs by CLSI based microtiter plate analysis. Type of series: functional.
In the next series the test system is Cryptococcus neoformans. The series can be described thus: Antifungal activity against clinical isolate fluconazole-resistant Cryptococcus neoformans H99 assessed as inhibition of fungal growth measured after 24 hrs by CLSI based microtiter plate analysis. It counts as functional.
The test system of series [12] is Candida albicans. Briefly: Antifungal activity against clinical isolate Candida albicans YEM15 overexpressing efflux pump CdrL and Cdr2 assessed as inhibition of fungal growth measured after 24 hrs by CLSI based microtiter plate analysis. It counts as functional.

≈ marks a conversion by molar mass, not a printed value. Calls of active or inactive are those of the source. The calls are words filed in the database; no cut-off is given here.

Turning to `N=C(N)c1ccc(OCCCN2CCC(=C3c4ccc(Cl)cc4CCc4cccnc43)CC2)cc1`, the MIC80 (in general, the lowest concentration that inhibits either 80% of growth or 80% of the strains tested, depending on the study) was determined as 32 µg/mL (≈ 65.7 µM) in the series with Candida albicans [1]; 32 µg/mL (≈ 65.7 µM) in the series with Candida albicans [2]; 32 µg/mL (≈ 65.7 µM) in the series with Candida tropicalis; 32 µg/mL (≈ 65.7 µM) in the series on Candida albicans [3]; 64 µg/mL (≈ 131 µM) in series [Candida] auris [4]; 64 µg/mL (≈ 131 µM) in the series on Candida albicans [5]. Moreover, the MIC80 in series [Candida] auris [6] was found to be 64 µg/mL (≈ 131 µM); with Candida albicans [8], 64 µg/mL (≈ 131 µM); in the series with Nakaseomyces glabratus, 64 µg/mL (≈ 131 µM); in the series on Candida albicans [9] it was 32 µg/mL (≈ 65.7 µM); in the series on Candida albicans [10], 32 µg/mL (≈ 65.7 µM); in the series on Candida albicans [11] it was 32 µg/mL (≈ 65.7 µM). Moreover, the MIC80 in the series with Cryptococcus neoformans was determined as 16 µg/mL (≈ 32.9 µM); in the series on Candida albicans [12] it was 32 µg/mL (≈ 65.7 µM). Besides, in [7], the Drug uptake result is “Active”. Also, in the series with Candida albicans [9], the MIC result is “inactive”.

On to `CC/C(=C(/CC)c1ccc(OCCCOc2ccc(C(=N)N)cc2)cc1)c1ccc(O)cc1`, for which the MIC80 (in the series with Candida albicans [1]; in the series on Candida albicans [2]; in the series on Candida tropicalis; in the series with Candida albicans [3]; in series [Candida] auris [4]; with Candida albicans [5]) was 4 µg/mL (≈ 9 µM) in each case. For the same compound, the MIC80 in series [Candida] auris [6] is 4 µg/mL (≈ 9 µM); in the series with Candida albicans [8] it was 4 µg/mL (≈ 9 µM); in the series on Nakaseomyces glabratus, 8 µg/mL (≈ 18 µM); with Candida albicans [9], 4 µg/mL (≈ 9 µM); in the series with Candida albicans [10] it was 4 µg/mL (≈ 9 µM); in the series with Candida albicans [11] it was 4 µg/mL (≈ 9 µM). In addition, the MIC80 in the series on Cryptococcus neoformans came out at 8 µg/mL (≈ 18 µM); in the series on Candida albicans [12], 4 µg/mL (≈ 9 µM). In addition, in series [7], the Drug uptake result is given as “Active”. For the same compound, in the series on Candida albicans [9], the MIC entry was “inactive”.

Consider `C=C1C(=O)[C@@]23CC[C@H]4[C@@](C)(CCC[C@@]4(C)C(=O)OCCCOc4ccc(C(=N)N)cc4)[C@@H]2CC[C@]1(O)C3`, for which the MIC80 came to 4 µg/mL (≈ 7.86 µM) with Candida albicans [1]; 4 µg/mL (≈ 7.86 µM) in the series with Candida albicans [2]; 4 µg/mL (≈ 7.86 µM) in the series on Candida tropicalis; 4 µg/mL (≈ 7.86 µM) with Candida albicans [3]; 8 µg/mL (≈ 15.7 µM) in series [Candida] auris [4]; 4 µg/mL (≈ 7.86 µM) in the series with Candida albicans [5]. For the same compound, the MIC80 was 8 µg/mL (≈ 15.7 µM) in series [Candida] auris [6]; 8 µg/mL (≈ 15.7 µM) with Candida albicans [8]; 8 µg/mL (≈ 15.7 µM) in the series on Nakaseomyces glabratus; 4 µg/mL (≈ 7.86 µM) in the series on Candida albicans [9]; 8 µg/mL (≈ 15.7 µM) with Candida albicans [10]; 4 µg/mL (≈ 7.86 µM) with Candida albicans [11]. The MIC80 in the series with Cryptococcus neoformans was determined as 8 µg/mL (≈ 15.7 µM); in the series with Candida albicans [12], 4 µg/mL (≈ 7.86 µM). The Drug uptake result in [7] is on record as “Active”.

In the case of `C=CCc1ccc(OCCCOc2ccc(C(=N)N)cc2)c(-c2ccc(O)c(CC=C)c2)c1`, the MIC80 in the series on Candida albicans [1] came to 8 µg/mL (≈ 18.1 µM); in the series with Candida albicans [2] it was 8 µg/mL (≈ 18.1 µM); with Candida tropicalis it was 16 µg/mL (≈ 36.2 µM); with Candida albicans [3], 8 µg/mL (≈ 18.1 µM); in [Candida] auris [4], 8 µg/mL (≈ 18.1 µM); with Candida albicans [5] it was 8 µg/mL (≈ 18.1 µM). Besides, the MIC80 was determined as 16 µg/mL (≈ 36.2 µM) in series [Candida] auris [6]; 8 µg/mL (≈ 18.1 µM) with Candida albicans [8]; 16 µg/mL (≈ 36.2 µM) with Nakaseomyces glabratus; 8 µg/mL (≈ 18.1 µM) with Candida albicans [9]; 8 µg/mL (≈ 18.1 µM) in the series with Candida albicans [10]; 8 µg/mL (≈ 18.1 µM) in the series with Candida albicans [11]. The MIC80 with Cryptococcus neoformans and in the series on Candida albicans [12] was 8 µg/mL (≈ 18.1 µM) throughout. In addition, the Drug uptake entry in series [7] is recorded as “Active”. Moreover, the MIC result with Candida albicans [9] is “inactive”.

On to `CCOC(=O)C1=C(COCCNCCCOc2ccc(C(=N)N)cc2)NC(C)=C(C(=O)OC)C1c1ccccc1Cl` (centres undefined), for which the MIC80 came to 4 µg/mL (≈ 6.84 µM) with Candida albicans [1]; 4 µg/mL (≈ 6.84 µM) with Candida albicans [2]; 4 µg/mL (≈ 6.84 µM) in the series with Candida tropicalis; 4 µg/mL (≈ 6.84 µM) in the series with Candida albicans [3]; 8 µg/mL (≈ 13.7 µM) in series [Candida] auris [4]; 8 µg/mL (≈ 13.7 µM) in the series with Candida albicans [5]. Further, the MIC80 in series [Candida] auris [6] was 8 µg/mL (≈ 13.7 µM); with Candida albicans [8], 4 µg/mL (≈ 6.84 µM); in the series on Nakaseomyces glabratus it was 8 µg/mL (≈ 13.7 µM); with Candida albicans [9], 4 µg/mL (≈ 6.84 µM); in the series with Candida albicans [10], 8 µg/mL (≈ 13.7 µM); in the series with Candida albicans [11] it was 4 µg/mL (≈ 6.84 µM). The MIC80 was 8 µg/mL (≈ 13.7 µM) in the series with Cryptococcus neoformans and 4 µg/mL (≈ 6.84 µM) with Candida albicans [12]. Further, the Drug uptake result in series [7] was “Active”. Further, the MIC result in the series with Candida albicans [9] is “inactive”.
